Each structure is given as a SMILES string.

In data set [1] the target is JAK1 (Homo sapiens (Human), UniProt P23458). It counts as biochemical. The protocol:
(§1) Assay 1: Biochemical JAK and Off-Target Kinase Assays
(§2) A panel of four LanthaScreen JAK biochemical assays (JAK1, 2, 3 and Tyk2) were carried in a common kinase reaction buffer (50 mM HEPES, pH 7.5, 0.01% Brij-35, 10 mM MgCl2, and 1 mM EGTA). Recombinant GST-tagged JAK enzymes and a GFP-tagged STAT1 peptide substrate were obtained from Life Technologies.
(§3) Serially diluted compounds were pre-incubated with each of the four JAK enzymes and the substrate in white 384-well microplates (Corning) at ambient temperature for 1 h. ATP was subsequently added to initiate the kinase reactions in 10 μL total volume, with 1% DMSO. […] Kinase reactions were allowed to proceed for 1 hour at ambient temperature before a 10 μL preparation of EDTA (10 mM final concentration) and Tb-anti-pSTAT1 (pTyr701) antibody (Life Technologies, 2 nM final concentration) in TR-FRET dilution buffer (Life Technologies) was added. The plates were allowed to incubate at ambient temperature for 1 h before being read on the EnVision reader (Perkin Elmer).
(§4) Results were expressed as pIC50 (negative logarithm of IC50) and subsequently converted to pKi (negative logarithm of dissociation constant, Ki) using the Cheng-Prusoff equation.

Data set [2] addresses JAK2 (Homo sapiens (Human), UniProt O60674). It counts as biochemical. The protocol:
as §1, §2, §3, §4

The target of data set [3] is TYK2 (Homo sapiens (Human), UniProt P29597). It counts as biochemical. The protocol: as §1, §2, §3, §4
For data set [4], the system named is IL-13 induced STAT6 phosphorylation in BEAS-2B human lung epithelial cells. The following applies: BEAS-2B cells.
The subject of data set [5] is IL-4 induced STAT6 phosphorylation in THP-1 human monocytic cells. The following applies: THP-1 cells.
A short description of data set [6]: Pharmacokinetics in plasma and the GI tract in rats. It counts as in vivo, Sprague Dawley rats. The following applies: oral dosing in preclinical species. The procedure: Assay 6: Pharmacokinetics in Plasma and the GI Tract in Rats and Dogs A test compound was dosed to male Sprague Dawley rats (n=3) as described in Assay 5. […] At all time points, the plasma concentration was below the limit of quantitation of 0.001 μg/mL.

For data set [7], the system named is oxazolone-induced colitis. Kind of data set: Mouse model of oxazolone-induced colitis. It counts as in vivo, BALB/C mice. The following applies: mice. The protocol:
Assay 7: Mouse Model of Oxazalone-Induced Colitis
Oxazolone-induced colitis is an experimental model that has a histological resemblance to human ulcerative colitis (Heller et al. Immunology, 2002, 17, 629-638). Adult BALB/C mice from Harlan were used in the assay. On day 1, animals were lightly anesthetized with isoflurane and the hairs between the shoulder were carefully removed before oxazolone (4%, 150 μL, 4:1 acetone:olive oil formulation) or vehicle solution was slowly applied for skin sensitization. Seven days after skin sensitization, the mice were fasted overnight, anesthetized with isoflurane inhalation, and a 1 mL syringe equipped with a 3.5-F catheter, filled with oxazolone solution, was inserted carefully about 4 cm into the colon of the mouse. Following insertion, 50 μL of the oxazolone solution (1%, 1:1 ethanol:water formulation) was injected very slowly (over 30 sec using an injection pump) into the colon. The catheter was removed and the mice were held vertically (head down) for 2 min to ensure that the entire oxazolone solution remained inside the colon. Drug treatment (PO, BID or TID) or vehicle was initiated a day prior to the oxazolone intrarectal (IR) challenge. Two-day post oxazolone intrarectal challenge, the Disease Activity Index (DAI) was assessed by treatment-blinded experimenters for each mouse according to the criteria score: stool consistency score (0, normal; 2, loose; 4, diarrhea), gross bleeding score (0, absence; 2, blood tinged; 4, presence), and weight loss score (0, none; 1, 1%-5%; 2, 5%-10%; 3, 10%-20%; 4, more than 20%); DAI=average of (stool consistency score+gross bleeding score+weight loss score).
Selected compounds of the invention were tested in the assay. Efficacy in the model is evidenced by a decrease in DAI score as compared with the score from vehicle treated animals.

The test system of data set [8] is splenic NK, B and T cells. Description: Immunosuppression effects in mouse splenic natural killer (NK) cells. It counts as in vivo, Balb/C mice. The following applies: mice, three days; for treatment effect on B and T cell populations: PO BID. The procedure:
Adult male Balb/C mice (12-14 weeks of age) from Harlan were used for the study. […] Spleens were harvested 1 or 2 h post last dose and crushed immediately for cell subtype staining. Prior to fixation, fluorophore-labelled antibodies for CD19 (FITC; B cells), CD3e (PE; pan T cells) and DX5 (APC; NK cells) were incubated with splenocyte samples from each animal to allow for simultaneous, multiple subtype % analysis on the flow cytometer. The number of total spleen cells for each animal was measured by Scepter™ 2.0 Handheld Automated Cell Counter. The absolute number of lymphocyte subtype population (e.g., splenic B, T and NK cells) was calculated from the percentage of each subtype times total spleen cells for each animal. A one way ANOVA, with Dunnett's post hoc test, was used to compare the splenic lymphocytes number of the vehicle and test compound groups. The a level was set at p<0.05. Data were presented as the mean±SEM for each group.

Data set [9] is described as follows: First in human study of safety, tolerability and pharmacokinetics in healthy subjects. It counts as in vivo. The settings on record: by comparison to other orally administered compounds. The procedure: Assay 9: First in Human Study to Evaluate the Safety, Tolerability and Pharmacokinetics in Healthy Subjects
The compound of Example 1 was evaluated in a double-blinded, randomized, placebo-controlled, single ascending dose (SAD) and multiple ascending dose (MAD) study of safety, tolerability, and pharmacokinetics in healthy subjects. Pharmacokinetic samples were collected up to 72 hours post the final dose in both the SAD study (after the first dose) and MAD study (after 14 days of once-daily dosing). The SAD study enrolled 5 cohorts and the MAD study enrolled 4 cohorts totaling 72 subjects, of which 71 completed the dosing period.
Plasma pharmacokinetic (PK) parameters were determined by non-compartmental analysis using WinNonLin Version 6.4.0 (Pharsight, St Louis, Mo.). The plasma PK parameter presented here is:
Cmax: Maximum Concentration in Plasma

For data set [10] the following is noted: 5% to 90% relative humidity, room temperature; listed as Crystalline 3-(1R,3s,5S)-3-((7-((5-methyl-1H-pyrazol-3-yl)amino)-1,6-naphthyrid)). The procedure:
A weighed sample was used and the humidity was lowest possible value (close to 0% RH) at the start of the analysis. The DMS analysis consisted of an initial drying step (0% RH) for 120 minutes, followed by two cycles of sorption and desorption with a scan rate of 5% RH/step over the humidity range of 5% RH to 90% RH. The DMS run was performed isothermally at 25° C.

Data set [11] addresses JAK3 (Homo sapiens (Human), UniProt P52333). Kind of data set: Biochemical JAK assay (LanthaScreen), JAK3. The protocol:
as §1, §2
Serially diluted compounds were pre-incubated with each of the four JAK enzymes and the substrate in white 384-well microplates (Corning) at ambient temperature for 1 h. ATP was subsequently added to initiate the kinase reactions in 10 μL total volume, with 1% DMSO. […] The plates were allowed to incubate at ambient temperature for 1 h before being read on the EnVision reader (Perkin Elmer).
as §4

Sequence of JAK2 (O60674 whole entry): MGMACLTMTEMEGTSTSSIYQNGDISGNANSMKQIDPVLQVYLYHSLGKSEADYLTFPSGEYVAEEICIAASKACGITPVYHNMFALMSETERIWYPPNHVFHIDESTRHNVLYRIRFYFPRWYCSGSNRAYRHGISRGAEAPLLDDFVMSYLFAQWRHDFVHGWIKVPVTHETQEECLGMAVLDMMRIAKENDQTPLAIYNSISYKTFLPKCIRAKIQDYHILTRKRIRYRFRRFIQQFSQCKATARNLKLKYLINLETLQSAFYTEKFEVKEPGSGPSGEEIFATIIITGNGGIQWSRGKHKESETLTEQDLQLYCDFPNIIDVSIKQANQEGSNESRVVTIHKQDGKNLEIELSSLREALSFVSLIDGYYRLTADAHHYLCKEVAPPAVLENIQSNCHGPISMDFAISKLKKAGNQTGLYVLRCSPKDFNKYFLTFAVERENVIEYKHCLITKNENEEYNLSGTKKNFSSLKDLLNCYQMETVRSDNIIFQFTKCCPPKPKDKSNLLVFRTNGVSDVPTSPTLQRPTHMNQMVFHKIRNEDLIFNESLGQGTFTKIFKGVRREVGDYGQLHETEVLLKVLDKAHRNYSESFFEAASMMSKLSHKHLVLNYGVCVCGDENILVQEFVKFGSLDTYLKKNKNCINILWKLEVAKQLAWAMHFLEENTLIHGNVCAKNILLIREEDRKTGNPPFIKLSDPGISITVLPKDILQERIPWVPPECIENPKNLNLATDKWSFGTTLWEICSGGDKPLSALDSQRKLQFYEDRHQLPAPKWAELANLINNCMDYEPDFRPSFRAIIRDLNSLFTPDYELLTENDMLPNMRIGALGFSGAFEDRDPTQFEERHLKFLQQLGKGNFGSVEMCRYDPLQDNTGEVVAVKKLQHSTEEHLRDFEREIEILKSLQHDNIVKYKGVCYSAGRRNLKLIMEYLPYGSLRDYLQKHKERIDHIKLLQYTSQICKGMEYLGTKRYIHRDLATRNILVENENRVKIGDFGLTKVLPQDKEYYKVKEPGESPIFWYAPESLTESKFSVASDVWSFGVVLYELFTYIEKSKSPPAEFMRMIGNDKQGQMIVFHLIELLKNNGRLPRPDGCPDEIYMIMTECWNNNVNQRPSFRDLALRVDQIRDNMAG
Sequence of JAK3 (P52333 whole entry): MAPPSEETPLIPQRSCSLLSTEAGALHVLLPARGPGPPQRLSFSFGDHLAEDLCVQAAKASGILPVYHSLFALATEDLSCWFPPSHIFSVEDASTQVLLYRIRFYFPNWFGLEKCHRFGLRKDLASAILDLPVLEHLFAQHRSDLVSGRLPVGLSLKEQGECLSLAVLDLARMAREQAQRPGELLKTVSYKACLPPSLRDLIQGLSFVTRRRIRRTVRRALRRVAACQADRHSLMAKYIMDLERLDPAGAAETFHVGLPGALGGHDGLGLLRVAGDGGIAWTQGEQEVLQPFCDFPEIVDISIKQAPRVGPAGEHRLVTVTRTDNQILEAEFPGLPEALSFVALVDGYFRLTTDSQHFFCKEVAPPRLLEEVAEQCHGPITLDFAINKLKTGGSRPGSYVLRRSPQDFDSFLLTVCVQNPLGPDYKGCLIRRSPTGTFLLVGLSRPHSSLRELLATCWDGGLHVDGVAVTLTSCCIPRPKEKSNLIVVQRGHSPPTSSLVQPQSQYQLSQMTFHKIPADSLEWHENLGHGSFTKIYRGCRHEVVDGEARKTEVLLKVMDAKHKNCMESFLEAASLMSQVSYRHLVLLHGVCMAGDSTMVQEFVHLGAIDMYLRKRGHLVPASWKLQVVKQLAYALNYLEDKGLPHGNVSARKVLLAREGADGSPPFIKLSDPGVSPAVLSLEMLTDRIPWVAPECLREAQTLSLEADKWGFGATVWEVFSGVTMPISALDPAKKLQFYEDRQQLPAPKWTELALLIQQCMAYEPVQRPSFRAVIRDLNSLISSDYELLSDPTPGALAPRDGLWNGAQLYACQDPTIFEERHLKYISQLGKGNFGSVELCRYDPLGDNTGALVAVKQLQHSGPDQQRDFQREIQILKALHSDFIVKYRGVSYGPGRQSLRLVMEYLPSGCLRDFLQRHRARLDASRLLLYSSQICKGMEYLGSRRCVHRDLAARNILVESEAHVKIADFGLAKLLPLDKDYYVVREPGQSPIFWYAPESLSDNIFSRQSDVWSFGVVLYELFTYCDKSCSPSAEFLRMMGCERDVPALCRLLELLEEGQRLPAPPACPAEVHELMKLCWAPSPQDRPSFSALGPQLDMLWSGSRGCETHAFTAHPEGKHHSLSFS
Sequence of JAK1 (P23458 whole entry): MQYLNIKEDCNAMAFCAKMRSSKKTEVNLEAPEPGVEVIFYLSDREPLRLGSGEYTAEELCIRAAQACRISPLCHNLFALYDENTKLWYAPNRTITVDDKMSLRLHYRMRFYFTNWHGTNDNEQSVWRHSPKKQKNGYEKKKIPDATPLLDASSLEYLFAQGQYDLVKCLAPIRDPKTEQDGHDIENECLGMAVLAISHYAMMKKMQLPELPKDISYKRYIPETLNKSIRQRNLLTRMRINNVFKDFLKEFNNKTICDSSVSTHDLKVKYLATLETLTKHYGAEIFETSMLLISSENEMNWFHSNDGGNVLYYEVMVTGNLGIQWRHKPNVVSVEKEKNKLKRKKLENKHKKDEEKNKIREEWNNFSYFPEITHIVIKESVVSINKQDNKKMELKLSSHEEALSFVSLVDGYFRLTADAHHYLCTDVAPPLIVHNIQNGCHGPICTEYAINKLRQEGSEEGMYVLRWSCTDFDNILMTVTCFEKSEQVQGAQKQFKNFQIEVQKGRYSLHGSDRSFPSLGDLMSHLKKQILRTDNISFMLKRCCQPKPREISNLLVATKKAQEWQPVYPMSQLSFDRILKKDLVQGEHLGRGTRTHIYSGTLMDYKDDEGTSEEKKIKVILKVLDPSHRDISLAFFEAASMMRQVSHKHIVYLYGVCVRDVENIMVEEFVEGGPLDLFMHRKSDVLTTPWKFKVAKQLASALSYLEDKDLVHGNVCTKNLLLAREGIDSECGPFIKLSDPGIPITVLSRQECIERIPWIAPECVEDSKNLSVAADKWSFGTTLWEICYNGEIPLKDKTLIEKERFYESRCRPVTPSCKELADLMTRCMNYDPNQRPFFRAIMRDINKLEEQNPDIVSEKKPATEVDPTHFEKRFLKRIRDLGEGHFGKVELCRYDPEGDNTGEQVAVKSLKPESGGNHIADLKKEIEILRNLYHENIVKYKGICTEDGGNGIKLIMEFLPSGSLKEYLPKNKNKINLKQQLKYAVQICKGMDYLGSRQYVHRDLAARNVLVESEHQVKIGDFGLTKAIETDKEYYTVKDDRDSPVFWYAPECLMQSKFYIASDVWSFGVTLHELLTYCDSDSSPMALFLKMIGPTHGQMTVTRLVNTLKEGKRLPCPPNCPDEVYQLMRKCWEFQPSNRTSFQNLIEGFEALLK
Sequence of TYK2 (P29597 whole entry): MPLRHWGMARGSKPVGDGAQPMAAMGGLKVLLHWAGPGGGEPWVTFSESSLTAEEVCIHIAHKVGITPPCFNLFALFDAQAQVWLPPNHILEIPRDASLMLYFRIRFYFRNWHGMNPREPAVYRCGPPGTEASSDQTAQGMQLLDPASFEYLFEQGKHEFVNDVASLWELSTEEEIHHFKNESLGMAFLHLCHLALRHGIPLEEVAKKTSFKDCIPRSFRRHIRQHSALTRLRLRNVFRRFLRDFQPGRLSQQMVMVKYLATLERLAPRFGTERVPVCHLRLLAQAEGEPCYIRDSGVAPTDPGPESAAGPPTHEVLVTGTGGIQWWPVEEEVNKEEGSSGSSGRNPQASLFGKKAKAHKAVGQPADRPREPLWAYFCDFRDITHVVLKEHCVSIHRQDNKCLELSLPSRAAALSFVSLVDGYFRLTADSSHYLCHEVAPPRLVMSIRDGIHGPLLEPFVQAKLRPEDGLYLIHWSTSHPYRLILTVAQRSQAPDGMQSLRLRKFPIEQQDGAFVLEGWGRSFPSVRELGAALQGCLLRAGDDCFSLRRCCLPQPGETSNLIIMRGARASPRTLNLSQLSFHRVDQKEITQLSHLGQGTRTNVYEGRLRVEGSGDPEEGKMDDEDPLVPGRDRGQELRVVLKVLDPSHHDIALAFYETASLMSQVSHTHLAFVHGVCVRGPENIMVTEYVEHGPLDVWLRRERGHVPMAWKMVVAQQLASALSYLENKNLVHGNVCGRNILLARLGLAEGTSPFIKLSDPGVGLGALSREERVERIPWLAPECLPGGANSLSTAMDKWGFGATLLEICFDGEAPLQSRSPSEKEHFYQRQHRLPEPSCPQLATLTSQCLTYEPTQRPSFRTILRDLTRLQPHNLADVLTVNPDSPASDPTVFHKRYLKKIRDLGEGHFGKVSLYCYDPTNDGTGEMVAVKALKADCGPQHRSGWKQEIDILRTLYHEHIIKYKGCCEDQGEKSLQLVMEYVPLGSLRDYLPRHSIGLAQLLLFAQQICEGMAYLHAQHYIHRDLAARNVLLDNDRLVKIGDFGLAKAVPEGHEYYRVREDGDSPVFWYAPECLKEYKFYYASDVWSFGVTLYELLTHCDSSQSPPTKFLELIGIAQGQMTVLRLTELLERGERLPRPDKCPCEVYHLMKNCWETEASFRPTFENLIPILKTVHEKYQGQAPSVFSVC

With `Cc1cc(Nc2cc3ncccc3c(N[C@@H]3C[C@H]4CCC[C@@H](C3)N4C(=O)C3(C#N)CC3)n2)n[nH]1` [Example 2-20], the “JAK 1 (pKi)” value in data set [1] was “B (B represents a pKi value between 9 and 10 (Ki between 1 nM and 0.1 nM))”. Also, the “JAK 2 (pKi)” value in [2] was “B (B represents a pKi value between 9 and 10 (Ki between 1 nM and 0.1 nM))”. Besides, the “Tyk 2 (pKi)” value in data set [3] was “C (C represents a pKi value between 7 and 9 (Ki between 100 nM and 1 nM))”. Also, the “BEAS2B pIC50” value in [4] is recorded as “A (A represents a pEC50 value ≥7.5 (EC50≤32 nM))”. Moreover, in [5], the “THP-1 IL4 pIC50” value is reported as “A (A represents a pEC50 value ≥7.5 (EC50≤32 nM))”.

Consider `Cc1cc(Nc2cc3ncccc3c(N[C@@H]3C[C@H]4CC[C@@H](C3)N4CCC#N)n2)n[nH]1` [Example 1, 3-((1R,3s,5S)-3-((7-((5-methyl-1H-pyrazol-3-yl)amino)-1,6-naphthyridin-5-yl)amino)-8-azabicyclo[3.2.1]octan-8-yl)propanenitrile], for which the “exposure throughout the gastrointestinal tract vs exposure in plasma” value in data set [6] is listed as “significantly higher exposure”. Moreover, the “activity in the oxazolone-induced colitis model” value in data set [7] is listed as “demonstrated activity”. In addition, in [7] (PO, 1, 3, and/or 10 mg/kg BID (doses up to 10 mg/kg BID)), the “decrease in DAI score as compared with vehicle treated animals” value was “statistically significant decrease”. Also, in data set [8] (PO BID doses up to 100 mg/kg), the “splenic NK cell counts” value is “unaffected”. Besides, the “treatment effect on B and T cell populations” value in data set [8] is listed as “No treatment effect”. The oral bioavailability result in [9] is “very low”.

As to `Cc1cc(Nc2cc3ncccc3c(N[C@@H]3C[C@H]4CC[C@@H](C3)N4CCC#N)n2)n[nH]1` [Form I, 3-((1R,3s,5S)-3-((7-((5-methyl-1H-pyrazol-3-yl)amino)-1,6-naphthyridin-5-yl)amino)-8-azabicyclo[3.2.1]octan-8-yl)propanenitrile], the “weight gain / weight change on exposure to humidity” value in data set [10] is reported as “less than 0.15%”.

On to `Cc1cc(Nc2cc3ncccc3c(N[C@@H]3C[C@H]4CC[C@@H](C3)N4C(=O)C3(C(F)(F)F)CC3)n2)n[nH]1` [Example 2-7], for which the “JAK 1 (pKi)” value in data set [1] was “B (B represents a pKi value between 9 and 10 (Ki between 1 nM and 0.1 nM))”. Moreover, the “Tyk 2 (pKi)” value in data set [3] is “C (C represents a pKi value between 7 and 9 (Ki between 100 nM and 1 nM))”. The “JAK 3 (pKi)” value in [11] was “C (C represents a pKi value between 7 and 9 (Ki between 100 nM and 1 nM))”. Further, in [5], the “THP-1 IL4 pIC50” value was “B (B represents a pEC50 value between 6.7 and 7.5 (EC50 between 200 nM and 32 nM))”.

On to `Cc1cnc2cc(Nc3cc(C)[nH]n3)nc(N[C@@H]3C[C@H]4CC[C@@H](C3)N4S(C)(=O)=O)c2c1` [Example 6-5], for which, in data set [1], the “JAK 1 (pKi)” value was “B (B represents a pKi value between 9 and 10 (Ki between 1 nM and 0.1 nM))”. Besides, the “Tyk 2 (pKi)” value in data set [3] is “B (B represents a pKi value between 9 and 10 (Ki between 1 nM and 0.1 nM))”. Also, in data set [11], the “JAK 3 (pKi)” value is “C (C represents a pKi value between 7 and 9 (Ki between 100 nM and 1 nM))”. Also, the “BEAS2B pIC50” value in data set [4] is recorded as “A (A represents a pEC50 value ≥7.5 (EC50≤32 nM))”. In addition, the “THP-1 IL4 pIC50” value in data set [5] is recorded as “A (A represents a pEC50 value ≥7.5 (EC50≤32 nM))”.

With `Cc1cc(Nc2cc3ncccc3c(N[C@@H]3C[C@H]4CC[C@@H](C3)N4C(=O)C3(C#N)CC3)n2)n[nH]1` [Example 2-8], the “JAK 1 (pKi)” value in data set [1] was “B (B represents a pKi value between 9 and 10 (Ki between 1 nM and 0.1 nM))”. In data set [2], the “JAK 2 (pKi)” value was “B (B represents a pKi value between 9 and 10 (Ki between 1 nM and 0.1 nM))”. Also, the “Tyk 2 (pKi)” value in data set [3] was “C (C represents a pKi value between 7 and 9 (Ki between 100 nM and 1 nM))”. Further, in data set [5], the “THP-1 IL4 pIC50” value is “B (B represents a pEC50 value between 6.7 and 7.5 (EC50 between 200 nM and 32 nM))”.

Turning to `Cc1cnc2cc(Nc3cc(C)[nH]n3)nc(N[C@@H]3C[C@H]4CCC[C@@H](C3)N4S(C)(=O)=O)c2c1` [Example 6-8], in [1], the “JAK 1 (pKi)” value is “B (B represents a pKi value between 9 and 10 (Ki between 1 nM and 0.1 nM))”. Besides, the “Tyk 2 (pKi)” value in data set [3] was “B (B represents a pKi value between 9 and 10 (Ki between 1 nM and 0.1 nM))”. The “JAK 3 (pKi)” value in [11] is “B (B represents a pKi value between 9 and 10 (Ki between 1 nM and 0.1 nM))”. In data set [4], the “BEAS2B pIC50” value is “A (A represents a pEC50 value ≥7.5 (EC50≤32 nM))”. The “THP-1 IL4 pIC50” value in [5] is recorded as “A (A represents a pEC50 value ≥7.5 (EC50≤32 nM))”.

Regarding `COCC1CCCN1S(=O)(=O)N1[C@@H]2CCC[C@H]1C[C@H](Nc1nc(Nc3cc(C)[nH]n3)cc3ncccc13)C2` (stereo partly shown) [Example 4-28], the “JAK 2 (pKi)” value in [2] was “B (B represents a pKi value between 9 and 10 (Ki between 1 nM and 0.1 nM))”. Also, the “Tyk 2 (pKi)” value in [3] is “B (B represents a pKi value between 9 and 10 (Ki between 1 nM and 0.1 nM))”. Further, the “JAK 3 (pKi)” value in data set [11] was “C (C represents a pKi value between 7 and 9 (Ki between 100 nM and 1 nM))”. Also, the “THP-1 IL4 pIC50” value in [5] is “A (A represents a pEC50 value ≥7.5 (EC50≤32 nM))”.

Consider `Cc1cc(Nc2cc3ncccc3c(N[C@@H]3C[C@H]4CCC[C@@H](C3)N4C(=O)C3(C(F)(F)F)CC3)n2)n[nH]1` [Example 2-19], for which the “JAK 1 (pKi)” value in data set [1] is “B (B represents a pKi value between 9 and 10 (Ki between 1 nM and 0.1 nM))”. Moreover, the “Tyk 2 (pKi)” value in [3] is “B (B represents a pKi value between 9 and 10 (Ki between 1 nM and 0.1 nM))”. For the same molecule, in data set [11], the “JAK 3 (pKi)” value was “C (C represents a pKi value between 7 and 9 (Ki between 100 nM and 1 nM))”. The “THP-1 IL4 pIC50” value in data set [5] is “A (A represents a pEC50 value ≥7.5 (EC50≤32 nM))”.

Regarding `C[C@@H]1CCN(C(=O)CC#N)C[C@@H]1N(C)c1ncnc2[nH]ccc12` [tofacitinib, reference compound], the “splenic NK cell counts” value in [8] (30 mg/kg PO BID) is on record as “significantly decreased”. Moreover, the “treatment effect on B and T cell populations” value in [8] is given as “No treatment effect”.
